Columns and labels:
calnexin = test: Immunostaining for the ER marker protein calnexin; assay type: cell-based; conditions: ML-7-treated cells vs control cells
Experimental: Protein concentration was estimated by the Bradford assay, with bovine serum albumin as standard.^51 Western blot analyses of cellular proteins were performed using 50 μg of protein. For Western blot analysis of secreted proteins, equal numbers of cells were seeded, serum-free medium was added to the cells, and incubation continued for 3 h. The medium was collected, and an aliquot was analyzed directly by Western blot analysis. Use of serum free medium in collecting secreted proteins is essential because fetal calf serum contains substantial amounts of collagen and fibronectin.^15,31 For immunostaining, cells were seeded onto glass coverslips. […]
To assess the role of nonmuscle myosin in collagen synthesis, we disrupted nonmuscle myosin filaments in two different cell types: primary human lung fibroblasts and primary scleroderma skin fibroblasts. […] To assess the effect of ML-7 on collagen protein synthesis and secretion, we analyzed the levels of collagen α1(I) and α2(I) polypeptides in the intracellularly space and in the medium using Western blot analysis and chain-specific antibodies.^12,15,31-33 ML-7 treatment profoundly affected the secretion of type I collagen, but the effect differed in the two types of primary fibroblasts. […]

[1] = system: lung fibroblasts and scleroderma fibroblasts; test: Intracellular collagen degradation with proteosome inhibitor epoxomycin, Western blot; assay type: cell-based, human
Excerpt: FIG. 3 Disruption of nonmuscle myosin by ML-7 results in secretion of homotrimeric type I collagen. (a) ML-7 disrupts nonmuscle myosin filaments. Immunostaining of nonmuscle myosin IIB in control lung fibroblasts (CON) and in lung fibroblasts treated with ML-7 (ML-7). […] Western blot analysis of control cells (lane 1) and cells treated with ML-7 (lane 2) using anti-myosin IIB antibody (MYO IIB). Fibronectin (FIB), loading control. (c) Effect of ML-7 on collagen secretion from lung fibroblasts. Western blot analysis of cellular proteins from control cells (lane 2) and ML-7-treated cells (lane 1), and of medium proteins from control cells (lane 4) and ML-7-treated cells (lane 3). COL1A1, collagen α1(I) polypeptide; COL1A2, collagen α2(I) polypeptide; FIB, fibronectin as loading control. […] The medium samples from (c) were analyzed under reducing conditions (lanes 1 and 2) and nonreducing conditions […] with antibody specific for collagen α1(I) polypeptide. […] Intracellular collagen was analyzed by Western blot analysis using antibodies against collagen α1(I) polypeptide (COL1A1) and α2(I) polypeptide (COL1A2). […]
Protein concentration was estimated by the Bradford assay, with bovine serum albumin as standard.^51 Western blot analyses of cellular proteins were performed using 50 μg of protein. […] The medium was collected, and an aliquot was analyzed directly by Western blot analysis. […]

O=S(=O)(c1cccc2c(I)cccc12)N1CCCNCC1 [ML-7]
calnexin immunostaining (organization of the ER) (calnexin): did not show a difference | intracellular level of both collagen polypeptides ([1]; ML-7 in combination with epoxomycin vs epoxomycin alone, lung and scleroderma fibroblasts): significantly increased | additional (degradation) product of approximately 120 kDa ([1]; epoxomycin and ML-7, not seen with epoxomycin alone): prominently seen

From patent publication US8697385B1, “Protein controlling synthesis of collagen and associated methods” (Florida State University Research Foundation, Inc., priority 2009, dated 2014)
